Tested on: mouse macrophage (RAW264.7) cells
Assay: MTT cytotoxicity assay, RAW264.7
Assay type: cell-based
Settings: concentrations as high as 5 mM, 24 hours of incubation
Method: FIG. 3, comprising FIGS. 3A-3B, is a set of bar graphs illustrating biocompatibility profiles of BRAP assessed by MTT assay in mouse macrophage (RAW264.7) cells (FIG. 3A) and ARVC (FIG. 3B). FIG. 19 is a bar graph showing the results of assessing cytotoxicity of BRAP-encapsulated PLGA microparticles against RAW264.7 cells in vitro. Cell viability was determined by the 3-(4,5-dimethylthiazil-2yl)-2,5-diphenyltetrazolium bromide (MTT) assay 24 hours after addition of BRAP-encapsulated PLGA microparticles to cells. “PB” represents BRAP-encapsulated PLGA microparticles. The percentages indicate the weight content of BRAP in the particles. Values shown represent mean±s.d. (n=4). […] 3-(4,5-Dimethylthiazil-2yl)-2,5-diphenyltetrazolium bromide (MTT) assay was performed to evaluate the cytotoxicity of BRAP. NIH 3T3 cells were cultured at a density of 1×10^5 cells/well in a 24 well plate, and RAW 264.7 cells and HEK cells were also cultured at a density of 2×10^5 cells/well in a 24 well plate. Cells were incubated for 24 hours to reach ˜80% confluency. Cells were treated with various amount of BRAP and incubated for 24 hours. […] After 10 min incubation, the absorbance at 570 nm was measured using a microplate reader (Biotek Instruments, Winooski, Vt.). The cell viability was determined by comparing the absorbance of BRAP treated cells that of control cells.

**Q.** Which “cytotoxicity (MTT)” value does the source give for `CC1(CO)COB(c2ccc(CO)cc2)OC1` [BRAP, (4-(5-(hydroxymethyl)-5-methyl-1,3,2-dioxaborinan-2-yl)phenyl)methanol] here?
**A.** Its value is “no significant cytotoxicity”.
